# “And” between values parts separate entries of the source, which are not always exact repeats. Equal values may be shown once.
# Assays:
# [1] = tested on: AAD12 Soybean (GLXMA); assay: Field trials, crop tolerance (% visual necrosis); format: in vivo, Glycine max L. (soybean)
# Method: (§1) Field trials were conducted under agricultural field conditions in multiple states in the United States, including but not limited to Arkansas, Iowa, Illinois, Indiana, Kansas, Minnesota, Mississippi, Missouri, New York, Tennessee and Wisconsin. Trials were established as RCB (randomized complete block) design, with 3-4 replicates per treatment, and plot sizes varying from 5-10 feet (ft) wide by 12-30 ft long. Treatments were applied with small plot backpack sprayers, using pressurized carbon dioxide (CO2) as propellant. Pressure varied from 17-52 pounds per square inch (psi), with spray tips typically of a Flat Fan type applying water diluent at 15 gallons per acre (GPA). Boom sizes varied from 5-11 ft in width. Treatments were applied to soybean, cotton, corn or fallow crop land. Weed sizes varied, but all treatments were applied as post-emergence treatments to weeds from 2 leaf to 2 tiller growth stages varying from 3 to 17 inches in height. The weed spectrum included, but was not limited to, Amaranthus palmeri S. Wats. (Palmer amaranth, AMAPA), Ambrosia trifida L. (giant ragweed, AMBTR), Conyza canadensis (L.) Cronq. (horseweed, ERICA) and Salsola tragus L. (Russian thistle, SASKR).
# Glyphosate-, 2,4-D- and glufosinate-tolerant soybeans, corn or cotton comprising genes for tolerance for each herbicide as described above were used in all trials either as a breeding stack of one to three herbicide-tolerant events or as a molecular stack where all three herbicide tolerance traits were transformed into a single event.
# The 2,4-D-choline salt plus glyphosate premix formulation was a 400 g ae/L SL containing 195 g ae/L 2,4-D-choline salt and 205 g ae/L glyphosate-dimethylammonium (DMA) salt. […] All treatments were mixed in water at appropriate formulated product rates to achieve the desired rates as shown based on a unit area of application (hectare). Treatments were rated at 1 to 28 days after application (DAA) as compared to the untreated control plants. The trial sites had naturally occurring populations of weeds. The treated plots and control plots were rated blind at various intervals after application.
# Colby's equation was used to determine the herbicidal effects expected from the mixtures (Colby, S. R. Calculation of the synergistic and antagonistic response of herbicide combinations. Weeds 1967, 15, 20-22). A t-test (alpha=0.05) between Colby predictions and observed combinations was used to test for significant differences indicating synergy or antagonism using replicate data.
# However, the experiments described herein were performed such that active ingredients A and B were combined and only the efficacy of the combination was determined. As such, Colby's equation simplifies to
# Z=observed efficacy of a combination of active ingredient A (2,4-D-choline) and active ingredient B (glyphosate-DMA) at the same concentration as used in the mixture;
# [2] = tested on: AAD12 Soybean (GLXMA); assay: Field trials, crop tolerance (% visual chlorosis); format: in vivo, Glycine max L. (soybean)
# Method: as §1, with “SASKR). […]” for “SASKR).”
# However, the experiments described herein were performed such that active ingredients A and B were combined and only the efficacy of the combination was determined. […]
smiles,measurement,setting,value
"CP(=O)(O)CCC(N)C(=O)O (stereo not shown) [Glufosinate-Ammonium, ammonium (3-amino-3-carboxypropyl)(methyl)phosphinate]",Mean % Visual Necrosis,"[1]; 2 DAA, 1084 g ae/ha alone",25.0%
same,Mean % Visual Necrosis,"[1]; 3 DAA, 542 g ae/ha alone",0.0%
same,Mean % Visual Necrosis,"[1]; 3 DAA, 822 g ae/ha alone",0.8%
same,Mean % Visual Necrosis,"[1]; 3 DAA, 1084 g ae/ha alone",3.0% and 8.5% and 1.5% and 1.3%
same,Mean % Visual Necrosis,"[1]; 5 DAA, 542 g ae/ha alone",2.8%
same,Mean % Visual Necrosis,"[1]; 7 DAA, 542 g ae/ha alone",0.5% and 0.3%
same,Mean % Visual Necrosis,"[1]; 7 DAA, 822 g ae/ha alone",0.8% and 0.0% and 10.0% and 1.0% and 1.3%
same,Mean % Visual Necrosis,"[1]; 7 DAA, 1084 g ae/ha alone",3.3% and 1.3% and 10.0% and 2.0% and 2.3%
same,Mean % Visual Necrosis,"[1]; 8 DAA, 822 g ae/ha alone",7.5%
same,Mean % Visual Necrosis,"[1]; 8 DAA, 1084 g ae/ha alone",10.0% and 12.5% and 6.5%
same,Mean % Visual Necrosis,"[1]; 9 DAA, 822 g ae/ha alone",6.0%
same,Mean % Visual Necrosis,"[1]; 10 DAA, 1084 g ae/ha alone",2.3%
same,Mean % Visual Necrosis,"[1]; 14 DAA, 822 g ae/ha alone",0.0% and 1.0%
same,Mean % Visual Necrosis,"[1]; 14 DAA, 1084 g ae/ha alone",5.0% and 2.0%
same,Mean % Visual Necrosis,"[1]; 16 DAA, 542 g ae/ha alone",3.0%
same,Mean % Visual Necrosis,"[1]; 16 DAA, 822 g ae/ha alone",5.0%
same,Mean % Visual Necrosis,"[1]; 16 DAA, 1084 g ae/ha alone",1.8%
same,Mean % Visual Chlorosis,"[2]; 10 DAA, 1084 g ae/ha alone",8.5% and 10.0%
same,Mean % Visual Chlorosis,"[2]; 14 DAA, 542 g ae/ha alone",5.8%
